Molecular target: T1, autotaxin (ATX) (Homo sapiens, UniProt Q13822)
T1 construct: conditioned medium from the human melanoma cell line, MDA-MB-4355, which endogenously expresses autotaxin; host or cells: MDA-MB-435S human melanoma cells; serum-free conditioned medium, concentrated 20-fold
Assay: Native Autotaxin Choline Release Assay
Format: biochemical
Details: autotaxin in conditioned medium from human melanoma cell line; choline released from LPC; read-out: MDA-MB-435S Assay IC50
Experimental: ATX activity is determined by measuring the amount of choline realeased from the substrate, lyosphophatidylcholine (LPC). […] After reaching confluency, the cells are washed twice with phosphate-buffered saline (PBS) then cultured for 48 hours in phenol-red free, serum-free DMEM containing sodium pyruvate. […] 100 μl of a color mix which contains 4.5 mM 4-aminoantipyrine, 2.7 mM N-ethyl-N-(2-hydroxy-3-sulfopropyl)-m-toluidine, 21 units/ml horseradish peroxidase and 3 units/ml choline oxidase in 50 mM Tris, pH 8, 4.5 mM MgCl2 is added and the incubation continued at 37° C. for 10 minutes before reading the absorbance at 555 nm. The concentration of released choline in the sample is determined from a choline standard curve and is equal to the concentration of LPA produced.

| SMILES | IC50 |
| --- | --- |
| Cc1c(Sc2cccc(C(=O)O)c2)c2ccc(Cl)cc2n1-c1cnsc1 [Compound 1-42, 3-(6-Chloro-1-isothiazol-4-yl-2-methyl-1H-indol-3-ylsulfanyl)-benzoic acid] | < 300 nM |
| CCn1cc(-n2c(C)c(Sc3cccc(C(=O)O)c3)c3ccc(Cl)cc32)cn1 [Compound 1-43, 3-[6-Chloro-1-(1-ethyl-1H-pyrazol-4-yl)-2-methyl-1H-indol-3-ylsulfanyl]-benzoic acid] | < 300 nM |
| Cc1c(Sc2cccc(C(=O)O)c2)c2ccc(Cl)cc2n1-c1cnn(C(C)C)c1 [Compound 1-44, 3-[6-Chloro-1-(1-isopropyl-1H-pyrazol-4-yl)-2-methyl-1H-indol-3-ylsulfanyl]-benzoic acid] | < 300 nM |
| Cc1c(Sc2cccc(CC(=O)O)c2)c2ccc(Cl)cc2n1-c1cnn(C)c1 [Compound 1-45, {3-[6-Chloro-2-methyl-1-(1-methyl-1H-pyrazol-4-yl)-1H-indol-3-ylsulfanyl]-phenyl}-acetic acid] | < 300 nM |
| Cc1c(Sc2cc(C(=O)O)cc(C(F)(F)F)c2)c2ccc(Cl)cc2n1-c1cccnc1 [Compound 1-46, 3-(6-Chloro-2-methyl-1-pyridin-3-yl-1H-indol-3-ylsulfanyl)-5-trifluoromethyl-benzoic acid] | > 1000 nM |
| COc1ccc(CC(=O)O)cc1Sc1c(C)n(-c2cnn(C)c2)c2cc(Cl)ccc12 [Compound 1-47, {3-[6-Chloro-2-methyl-1-(1-methyl-1H-pyrazol-4-yl)-1H-indol-3-ylsulfanyl]-4-methoxy-phenyl}-acetic acid] | > 1000 nM |
| Cc1cncc(-n2c(C)c(Sc3cccc(CC(=O)O)c3)c3ccc(Cl)cc32)c1 [Compound 1-48, {3-[6-Chloro-2-methyl-1-(5-methyl-pyridin-3-yl)-1H-indol-3-ylsulfanyl]-phenyl}-acetic acid] | < 300 nM |
| CCC(C(=O)O)c1cccc(Sc2c(C)n(-c3cccnc3)c3cc(Cl)ccc23)c1 (centres unmarked) [Compound 1-49, 2-[3-(6-Chloro-2-methyl-1-pyridin-3-yl-1H-indol-3-ylsulfanyl)-phenyl]-butyric acid] | < 300 nM |
| Cc1ccc(C(=O)O)cc1Sc1c(C)n(-c2cnn(C)c2)c2cc(Cl)ccc12 [Compound 1-50, 3-[6-Chloro-2-methyl-1-(1-methyl-1H-pyrazol-4-yl)-1H-indol-3-ylsulfanyl]-4-methyl-benzoic acid] | > 1000 nM |
| CCn1cc(-n2c(C)c(Sc3cc(Br)cc(C(=O)O)c3)c3ccc(Cl)cc32)cn1 [Compound 1-51, 3-Bromo-5-[6-chloro-1-(1-ethyl-1H-pyrazol-4-yl)-2-methyl-1H-indol-3-ylsulfanyl]-benzoic acid] | > 1000 nM |
| CCn1cc(-n2c(C)c(Sc3cc(C)cc(C(=O)O)c3)c3ccc(Cl)cc32)cn1 [Compound 1-52, 3-[6-Chloro-1-(1-ethyl-1H-pyrazol-4-yl)-2-methyl-1H-indol-3-ylsulfanyl]-5-methyl-benzoic acid] | > 1000 nM |
| Cc1c(Sc2cc(C(=O)O)cc(C(F)(F)F)c2)c2ccc(Cl)cc2n1-c1cnn(C)c1 [Compound 1-53, 3-[6-Chloro-2-methyl-1-(1-methyl-1H-pyrazol-4-yl)-1H-indol-3-ylsulfanyl]-5-trifluoromethyl-benzoic acid] | > 1000 nM |
| Cc1ccc(C(=O)O)cc1Sc1c(C)n(-c2cccnc2)c2cc(Cl)ccc12 [Compound 1-54, 3-(6-Chloro-2-methyl-1-pyridin-3-yl-1H-indol-3-ylsulfanyl)-4-methyl-benzoic acid] | > 1000 nM |
| Cc1c(Sc2cccc(C(=O)O)c2)c2ccc(Cl)cc2n1-c1cnn(CC(F)(F)F)c1 [Compound 1-55, 3-{6-Chloro-2-methyl-1-[1-(2,2,2-trifluoro-ethyl)-1H-pyrazol-4-yl]-1H-indol-3-ylsulfanyl}-benzoic acid] | < 300 nM |
| Cc1cncc(-n2c(C)c(Sc3cccc(C(=O)O)c3)c3ccc(Cl)cc32)c1 [Compound 1-56, 3-[6-Chloro-2-methyl-1-(5-methyl-pyridin-3-yl)-1H-indol-3-ylsulfanyl]-benzoic acid] | < 300 nM |
| CCCn1cc(-n2c(C)c(Sc3cccc(C(=O)O)c3)c3ccc(Cl)cc32)cn1 [Compound 1-57, 3-[6-Chloro-2-methyl-1-(1-propyl-1H-pyrazol-4-yl)-1H-indol-3-ylsulfanyl]-benzoic acid] | < 300 nM |
| Cc1c(Sc2cccc(C(=O)O)c2)c2ccc(Cl)cc2n1-c1cnn(-c2ccccc2)c1 [Compound 1-58, 3-[6-Chloro-2-methyl-1-(1-phenyl-1H-pyrazol-4-yl)-1H-indol-3-ylsulfanyl]-benzoic acid] | < 300 nM |
| Cc1c(Sc2cccc(C(=O)O)c2)c2ccc(Cl)cc2n1-c1cnn(Cc2ccccc2)c1 [Compound 1-59, 3-[1-(1-Benzyl-1H-pyrazol-4-yl)-6-chloro-2-methyl-1H-indol-3-ylsulfanyl]-benzoic acid] | < 300 nM |

| SMILES | IC50 |
| --- | --- |
| Cc1nn(C)cc1-n1c(C)c(Sc2cccc(C(=O)O)c2)c2ccc(Cl)cc21 [Compound 1-60, 3-[6-Chloro-1-(1,3-dimethyl-1H-pyrazol-4-yl)-2-methyl-1H-indol-3-ylsulfanyl]-benzoic acid] | < 300 nM |
| COc1c(Sc2c(C)n(-c3cnn(C)c3)c3cc(Cl)ccc23)cccc1C(=O)O [Compound 1-61, 3-[6-Chloro-2-methyl-1-(1-methyl-1H-pyrazol-4-yl)-1H-indol-3-ylsulfanyl]-2-methoxy-benzoic acid] | < 300 nM |
| CCn1cc(-n2c(C)c(Sc3cccc(C(=O)O)c3OC)c3ccc(Cl)cc32)cn1 [Compound 1-62, 3-[6-Chloro-2-methyl-1-(1-ethyl-1H-pyrazol-4-yl)-1H-indol-3-ylsulfanyl]-2-methoxy-benzoic acid] | < 300 nM |
| Cc1c(Sc2c(C)n(-c3cnn(C)c3)c3cc(Cl)ccc23)cccc1C(=O)O [Compound 1-63, 3-[6-Chloro-2-methyl-1-(1-methyl-1H-pyrazol-4-yl)-1H-indol-3-ylsulfanyl]-2-methyl-benzoic acid] | < 300 nM |
| CCn1cc(-n2c(C)c(Sc3cccc(C(=O)O)c3C)c3ccc(Cl)cc32)cn1 [Compound 1-64, 3-[6-Chloro-2-methyl-1-(1-ethyl-1H-pyrazol-4-yl)-1H-indol-3-ylsulfanyl]-2-methyl-benzoic acid] | < 300 nM |
| Cc1cncc(-n2c(C)c(Sc3cccc(C(=O)O)c3C)c3ccc(Cl)cc32)c1 [Compound 1-65, 3-[6-Chloro-2-methyl-1-(5-methyl-pyridin-3-yl)-1H-indol-3-ylsulfanyl]-2-methyl-benzoic acid] | < 300 nM |
| Cc1cncc(-n2c(C)c(Sc3cccc(C(=O)O)c3F)c3ccc(Cl)cc32)c1 [Compound 1-66, 3-[6-Chloro-2-methyl-1-(5-methyl-pyridin-3-yl)-1H-indol-3-ylsulfanyl]-2-fluoro-benzoic acid] | < 300 nM |
| CCn1cc(-n2c(C)c(Sc3cccc(C(=O)O)c3F)c3ccc(Cl)cc32)cn1 [Compound 1-67, 3-[6-Chloro-2-methyl-1-(1-ethyl-1H-pyrazol-4-yl)-1H-indol-3-ylsulfanyl]-2-fluoro-benzoic acid] | < 300 nM |
| Cc1ccc(-n2c(C)c(Sc3cccc(C(=O)O)c3)c3ccc(Cl)cc32)nn1 [Compound 1-68, 3-[6-Chloro-2-methyl-1-(6-methyl-pyridazin-3-yl)-1H-indol-3-ylsulfanyl]-benzoic acid] | 300 to 1000 nM |
| CCn1cc(-n2c(C)c(Sc3cccc(CC(=O)O)c3)c3ccc(Cl)cc32)cn1 [Compound 1-69, {3-[6-Chloro-1-(1-ethyl-1H-pyrazol-4-yl)-2-methyl-1H-indol-3-ylsulfanyl]-phenyl}-acetic acid] | < 300 nM |
| CCCn1cc(-n2c(C)c(Sc3cccc(CC(=O)O)c3)c3ccc(Cl)cc32)cn1 [Compound 1-70, {3-[6-Chloro-1-(1-propyl-1H-pyrazol-4-yl)-2-methyl-1H-indol-3-ylsulfanyl]-phenyl}-acetic acid] | < 300 nM |
| Cc1c(Sc2cccc(C(=O)O)c2)c2ccc(Cl)cc2n1-c1cnn(-c2ccc(F)cc2)c1 [Compound 1-71, 3-{6-Chloro-1-[1-(4-fluoro-phenyl)-1H-pyrazol-4-yl]-2-methyl-1H-indol-3-ylsulfanyl}-benzoic acid] | < 300 nM |
| CCCCn1cc(-n2c(C)c(Sc3cccc(C(=O)O)c3)c3ccc(Cl)cc32)cn1 [Compound 1-72, 3-[1-(1-Butyl-1H-pyrazol-4-yl)-6-chloro-2-methyl-1H-indol-3-ylsulfanyl]-benzoic acid] | < 300 nM |
| CCc1cncc(-n2c(C)c(Sc3cccc(C(=O)O)c3F)c3ccc(Cl)cc32)c1 [Compound 1-73, 3-[6-Chloro-1-(5-ethyl-pyridin-3-yl)-2-methyl-1H-indol-3-ylsulfanyl]-2-fluoro-benzoic acid] | < 300 nM |
| CCn1cc(-n2c(C)c(Sc3cccc(C4(C(=O)O)CC4)c3)c3ccc(Cl)cc32)cn1 [Compound 1-74, 1-{3-[6-Chloro-1-(1-ethyl-1H-pyrazol-4-yl)-2-methyl-1H-indol-3-ylsulfanyl]-phenyl}-cyclopropanecarboxylic acid] | < 300 nM |
| CCn1cc(-n2c(C)c(Sc3cccc(C(=O)O)c3)c3ccc(S(C)(=O)=O)cc32)cn1 [Compound 1-75, 3-[1-(1-Ethyl-1H-pyrazol-4-yl)-6-methanesulfonyl-2-methyl-1H-indol-3-ylsulfanyl]-benzoic acid] | > 1000 nM |
| CCn1cc(-n2c(C)c(Sc3ccc(F)c(C(=O)O)c3)c3ccc(Cl)cc32)cn1 [Compound 1-76, 5-[6-chloro-1-(1-ethyl-1H-pyrazol-4-yl)-2-methyl-1H-indol-3-ylsulfanyl]-2-fluoro-benzoic acid] | < 300 nM |

From patent publication US9000025B2, “Autotaxin inhibitors and uses thereof” (Amira Pharmaceuticals, Inc., priority 2010, dated 2015)
